Ten molecules from ChEMBL document CHEMBL4004890, “RITA Mimics: Synthesis and Mechanistic Evaluation of Asymmetric Linked Trithiazoles” (2017) can be followed below.

Broadly, the GI50 is the concentration that inhibits growth by half. A high value points to lower sensitivity of the cells.

Active and inactive are the calls of the source. The calls are words filed in the database; no cut-off is given here.

For assay [1], the system named is HCT-116. As to the kind of experiment: Growth inhibition of human HCT116 cells at 10 uM after 24 hrs by CCK8 assay relative to control. The assay is classed as functional.
In assay [2] the test system is HCT-116. As to the kind of experiment: Induction of apoptosis in human HCT116 cells at 10 uM after 24 hrs by Annexin-V-FITC/7AAD staining based flow cytometry. In kind it is functional, cell-based. On the technique in general: A flow cytometer gives signals particle by particle.
The subject of assay [3] is HCT-116. The experiment in a line: Growth inhibition of human HCT116 cells after 24 hrs by CCK8 assay. The assay is classed as functional. To be noted: HCT-116, 24 h. (Tetrazolium assays rely on reduction of a dye to a coloured formazan, in cell work by metabolically active cells.)
Assay [4] deals with HCT-116. As to the kind of experiment: Down regulation of c-Myc expression in human HCT116 cells at 1 uM after 12 to 24 hrs by chemiluminescent immunoblotting. In kind it is functional, cell-based. For orientation: In western blotting, separated proteins are transferred to a membrane and probed.
Assay [5] concerns HCT-116. As to the kind of experiment: Induction of apoptosis in human HCT116 cells at 1 uM after 24 hrs by Annexin-V-FITC/7AAD staining based flow cytometry. In kind it is functional, cell-based.
For assay [6], the system named is HCT-116. The experiment in a line: Down regulation of c-Myc expression in human HCT116 cells at 1 uM after 6 hrs by chemiluminescent immunoblotting. The assay is classed as functional, cell-based.
The subject of assay [7] is HCT-116. The experiment in a line: Down regulation of c-Myc expression in human HCT116 cells at 10 uM after 6 to 24 hrs by chemiluminescent immunoblotting. The assay is classed as functional, cell-based.
Assay [8] concerns HCT-116. As to the kind of experiment: Antiproliferative activity against human HCT116 cells. The assay is classed as functional.
Assay [9] deals with HCT-116. The experiment in a line: Upregulation of p53 expression in human HCT116 cells at 10 uM at 12 hrs post dose by chemiluminescent immunoblotting. The assay is classed as functional, cell-based.
In assay [10] the test system is HCT-116. The experiment in a line: Upregulation of p53 expression in human HCT116 cells at 1 uM at 6 hrs post dose by chemiluminescent immunoblotting. In kind it is functional, cell-based.
In assay [11] the test system is HCT-116. As to the kind of experiment: Down regulation of Mcl-1 expression in human HCT116 cells at 1 to 10 uM after 6 to 24 hrs by chemiluminescent immunoblotting. The assay is classed as functional, cell-based.
For the next assay, the system named is CCRF-CEM. The experiment in a line: Antiproliferative activity against human CCRF-CEM cells. In kind it is functional.
The next assay has as its system K562. The experiment in a line: Antiproliferative activity against human K562 cells. In kind it is functional.

Take `CC(C)(C)OC(=O)N1Cc2ccccc2C[C@H]1c1nc(-c2nc(-c3nc(C(N)=O)cs3)cs2)cs1`: the “growth inhibition (GI)” value in the assay on HCT-116 [1] is “inactive”.

For `CCOC(=O)c1csc(-c2csc(-c3csc([C@@H](N)Cc4ccccc4)n3)n2)n1`, the “growth inhibition (GI)” value in the assay with HCT-116 [1] is “inactive”. Regarding `CC(C)(C)OC(=O)N[C@H](Cc1ccccc1)c1nc(-c2nc(-c3nc(C(N)=O)cs3)cs2)cs1`, the “growth inhibition (GI)” value in the assay with HCT-116 [1] was “inactive”. Still for that read-out and setting: for `CC(C)(C)OC(=O)N[C@@H](Cc1ccccc1)c1nc(-c2nc(-c3nc(C(N)=O)cs3)cs2)cs1` the value was “inactive”. For the molecule `CCOC(=O)c1csc(-c2csc(-c3csc([C@@H]4Cc5ccccc5CN4C(=O)OC(C)(C)C)n3)n2)n1`, in the assay on HCT-116 [1], the “growth inhibition (GI)” value is “inactive”. The same measure, in the same setting: for `CCOC(=O)c1csc(-c2csc(-c3csc([C@H](N)Cc4ccccc4)n3)n2)n1` the value was “inactive”. Turning to `OCc1ccc(-c2ccc(-c3ccc(CO)s3)o2)s1`, the result in the assay on HCT-116 [2], with HCT-116 [5], in the assay on HCT-116 [6], in the assay on HCT-116 [7], with HCT-116 [9] and with HCT-116 [10] was Active. In the assay with HCT-116 [11], the outcome was Active. Also, the GI50 is 800 nM in the assay on HCT-116 [3] and 110 nM in the assay with HCT-116 [8]. Besides, in the assay on HCT-116 [4], the result was inactive.

On to `CN[C@@H](C)C(=O)N[C@H](C(=O)N1CCC[C@H]1c1nc(C(=O)c2ccc(F)cc2)cs1)C1CCCCC1` [LCL-161], for which the GI50 in the assay on CCRF-CEM was 250 nM.

Regarding `Cc1nc(Nc2ncc(C(=O)Nc3c(C)cccc3Cl)s2)cc(N2CCN(CCO)CC2)n1` [DASATINIB], in the assay on K562, the GI50 is below 1 nM.

`CCOC(=O)c1csc(-c2csc(-c3csc([C@H](Cc4ccccc4)NC(=O)OC(C)(C)C)n3)n2)n1`: in the assay on HCT-116 [1], the “growth inhibition (GI)” value is “inactive”.
